Experimental data from patent US20140051762A1, “POLYCATIONIC COMPOUNDS AND USES THEREOF” (priority 2004, published 2014).
Where “and” joins values, the source holds several entries; their conditions need not be identical. Equal values may be shown once.

Assays:
Factor Xa = assay: anti-heparin assay, % Factor Xa inhibition at single concentration (chromogenic substrate S-2765); format: biochemical; settings: Single concentration (10 ug/ml)
Experimental: (§1) The following example illustrates the heparin antagonistic effects of polycationic compounds of the present invention. To determine the anti-heparin activity of the polycationic compounds an assay measuring the percent inhibition using a fixed concentration of polycationic compound or concentrations of polycationic compounds causing lysis of 50% of human red blood cells were conducted.
10 IU of anti-thrombin was dissolved in 10 ml of buffer, resulting in a 1 IU/ml stock solution (250×) of the anti-thrombin. The 1 IU/ml (250×) stock solution of anti-thrombin and a 336 mM stock solution of NaCl were diluted into a total volume of 50 μl buffer so that the final anti-thrombin concentration was 0.004 IU/sample well and the NaCl was 150 mM/sample well. 1 μl of the compound to be tested, final concentration 10 μg/ml (corresponding to 0.5 logarithmic antagonist dilution) is added to the sample well. The samples are mixed and allowed to incubate at room temperature for 20 minutes. 50 μl of factor Xa dissolved in buffer is added to the sample well to a final concentration of 0.14 knat/well (2 μl of the 7.1 kna/1 ml stock solution to a final sample well buffer volume of 100 μl). The samples were mixed and further incubated at room temperature for 10 minutes. 10 μl of a 4 mM stock solution of the substrate S-2765 was added to each sample well for a final concentration of 0.4 mM in each sample well. The samples were mixed and hydrolyses of the chromogenic substrate Z-D-Arg-Gly-Arg-pNA (S-2765), thus liberating the chromophoric group pNA (p-nitroaniline), was monitored at 405 nm. The samples were mixed every 30 seconds to maintain a uniform mixture. ThermoLabsystems Multiskan Spectrum spectrophotometer was used to measure the absorbance spectrums. The increase in absorbance was proportional to the enzyme (factor Xa) activity. The % inhibition of factor Xa was determined using a standard curve.

[1] = system: FGF2-induced angiogenesis in the CAM model; assay: FGF2-induced angiogenesis in the chick chorioallantoic membrane (CAM) model; format: in vivo, chick embryo; settings: for Mean % inhibition ± SEM: Table 4
Experimental: The following example illustrates the anti-angiogenic effect of exemplary polycationic compounds of the present invention. Ten-day old embryos were purchased from Spafas, Inc. (Preston, Conn.) and were incubated at 37° C. with 55% relative humidity. In the dark with the help of a candling lamp, a small hole was punctured in the shell concealing the air sac with a hypodermic needle. A second hole was punctured in the shell on the broadside of the egg directly over an avascular portion of the embryonic membrane, as observed during candling. A false air sac was created beneath the second hole by the application of negative pressure to the first hole, which caused the chorioallantoic membrane (CAM) to separate from the shell. A window, approximately 1.0 cm^2, was cut in the shell over the dropped CAM with the use of a small crafts grinding wheel (Dremel, Division of Emerson Electric Company Racine, Wis.) which allowed direct access to the underlying CAM. Filter disks of #1 filter paper (Whatman International, United Kingdom) were soaked in 3 mg/mL cortisone acetate (Sigma, St. Louis, Mo.) in a solution of 95% ethanol and water and subsequently air dried under sterile conditions. FGF2 (Life Technologies, Gaithersburg, Md.) was used to grow vessels on the CAMs of 10 day old chick embryos. Sterile filter disks adsorbed with FGF2 dissolved in PBS at 1μg/mL were placed on growing CAMs. […] At 24 h, test compounds or control vehicle was added directly to CAM topically.
(§2) CAM tissue directly beneath FGF2-saturated filter disk was resected from embryos treated 48 hours prior with test compound or control. Tissues were washed three times with PBS. Sections were placed in a 35-mm petri dish (Nalgen Nunc, Rochester, N.Y.) and examined under a SV6 stereomicroscope (Karl Zeiss, Thornwood, N.Y.) at 50× magnification. Digital images of CAM sections adjacent to filters were collected using a 3-CCD color video camera system (Toshiba America, New York, N.Y.) and analyzed using Image-Pro Plus software (Media Cybernetics, Silver Spring, Md.). Table 4 contains the number of vessel branch points contained in a circular region equal to the area of a filter disk counted for each section.
as §2, with “48 h” for “48 hours”, “with” for “with test”, “dish (Nalge” for “dish (Nalgen”, “analyzed with the” for “analyzed using”, “Md.).” for “Md.). Table 4 contains the number of vessel branch points contained in a circular region equal to the area of a filter disk counted for each section.”

human red blood cells = assay: lysis of 50% of human red blood cells (HC50); format: cell-based
Experimental: as §1
Factor Xa Inhibition: EC50. To determine the concentration of polycationic compound that causes about 50% […], fixed heparin concentrations were used and different amounts of heparin antagonists were added.

heparin = assay: effect on coagulation time and heparin efficacy; settings: Compound 26 0 mg/L
Experimental: The following example illustrates the effect of a polycationic compound of the present invention on coagulation time. The anti-heparin assay as described herein was used. The assay contained either 1 mg/L, 2 mg/L or 4 mg/I of heparin and increasing amounts of Compound 26 was added.

| Molecule | % FactorXa Inhibition (Factor Xa) | further results |
| --- | --- | --- |
| CC(C)(C)c1cc(N)c(SCCN)c(NC(=O)c2cccc(C(=O)Nc3cc(C(C)(C)C)cc(N)c3SCCN)c2)c1 [Compound 3] | 2.855% |  |
| CC(C)(C)c1cc(NC(=O)c2cccc(C(=O)Nc3cc(C(C)(C)C)cc(NC(=O)[C@H](N)CCCCN)c3SCCN)c2)c(SCCN)c(NC(=O)[C@H](N)CCCCN)c1 [Compound 4] | 0.9517% |  |
| CC(C)(C)c1cc(NC(=O)c2cc(OCCN)cc(C(=O)Nc3cc(C(C)(C)C)cc(NC(=O)[C@H](N)Cc4ccccc4)c3SCCN)c2)c(SCCN)c(NC(=O)[C@H](N)Cc2ccccc2)c1 [Compound 5] | 39.77% |  |
| CC(C)(C)c1cc(NC(=O)CCCN)c(SCCN)c(NC(=O)c2cccc(C(=O)Nc3cc(C(C)(C)C)cc(NC(=O)CCCN)c3SCCN)c2)c1 [Compound 6] | 2.583% |  |
| CC(C)(C)c1cc(NC(=O)c2cccc(C(=O)Nc3cc(C(C)(C)C)cc(NC(=O)[C@H](N)Cc4ccccc4)c3SCCN)c2)c(SCCN)c(NC(=O)[C@H](N)Cc2ccccc2)c1 [Compound 8] | 7.41% |  |
| CC(C)(C)c1cc(N)c(SCCNC(=N)N)c(NC(=O)c2cccc(C(=O)Nc3cc(C(C)(C)C)cc(N)c3SCCNC(=N)N)c2)c1 [Compound 9] | 10.88% and 16.25% |  |
| CC(C)(C)c1cc(NC(=O)CCCCNC(=N)N)c(SCCNC(=N)N)c(NC(=O)c2cccc(C(=O)Nc3cc(C(C)(C)C)cc(NC(=O)CCCCNC(=N)N)c3SCCNC(=N)N)c2)c1 [Compound 10] | 20.8% |  |
| CC(C)(C)c1cc(NC(=O)CCCCN)c(SCCN)c(NC(=O)c2cccc(C(=O)Nc3cc(C(C)(C)C)cc(NC(=O)CCCCN)c3SCCN)c2)c1 [Compound 11] | 1.903% |  |
| CC(C)(C)c1cc(NC(=O)CCCCNC(=N)N)c(SCCN)c(NC(=O)c2cccc(C(=O)Nc3cc(C(C)(C)C)cc(NC(=O)CCCCNC(=N)N)c3SCCN)c2)c1 [Compound 12] | 9.381% |  |
| CC(C)(C)c1cc(NC(=O)c2cccc(C(=O)Nc3cc(C(C)(C)C)cc(NC(=O)c4cc(N)ccc4OCCCCCN)c3SCCN)c2)c(SCCN)c(NC(=O)c2cc(N)ccc2OCCCCCN)c1 [Compound 13] | 36.84% |  |
| CC(C)(C)c1cc(N)c(SCCNC(=N)N)c(NC(=O)c2cc(OCCNC(=N)N)cc(C(=O)Nc3cc(C(C)(C)C)cc(N)c3SCCNC(=N)N)c2)c1 [Compound 14] | 40.99% |  |
| CC(C)(C)c1cc(N)c(SCCN)c(NC(=O)c2cc(C(=O)Nc3cc(C(C)(C)C)cc(N)c3SCCN)c(OCCN)cc2OCCN)c1 [Compound 15] | 5.71% |  |
| CC(C)(C)c1cc(N)c(SCCNC(=N)N)c(NC(=O)c2cc(C(=O)Nc3cc(C(C)(C)C)cc(N)c3SCCNC(=N)N)c(OCCNC(=N)N)cc2OCCNC(=N)N)c1 [Compound 16] | 30.39% |  |
| CC(C)(C)c1cc(N)c(SCCNC(=N)N)c(NC(=O)c2cc(C(=O)Nc3cc(C(C)(C)C)cc(N)c3SCCNC(=N)N)c(OCCN)cc2OCCN)c1 [Compound 17] | 15.02% |  |
| CC(C)(C)c1cc(NC(=N)N)c(SCCN)c(NC(=O)c2cc(C(=O)Nc3cc(C(C)(C)C)cc(NC(=N)N)c3SCCN)c(OCCN)cc2OCCN)c1 [Compound 18] | 13.26% |  |
| CC(C)OC(=O)c1cc(NC(=O)c2cc(OCCN)cc(C(=O)Nc3cc(C(=O)OC(C)C)cc(NC(=O)[C@H](N)CCCNC(=N)N)c3SCCN)c2)c(SCCN)c(NC(=O)[C@H](N)CCCNC(=N)N)c1 [Compound 19] | 59.82% |  |

| Molecule | % FactorXa Inhibition (Factor Xa) | further results |
| --- | --- | --- |
| CC(=O)Nc1cc(C(C)(C)C)cc(NC(=O)c2cccc(C(=O)Nc3cc(C(C)(C)C)cc(NC(C)=O)c3SCCNC(=N)N)c2)c1SCCNC(=N)N [Compound 20] | 7.852% |  |
| CC(C)(C)c1cc(N)c(SCCNC2=NCCN2)c(NC(=O)c2cccc(C(=O)Nc3cc(C(C)(C)C)cc(N)c3SCCNC3=NCCN3)c2)c1 [Compound 21] | 1.496% |  |
| CN(C)C(NCCSc1c(N)cc(C(C)(C)C)cc1NC(=O)c1cccc(C(=O)Nc2cc(C(C)(C)C)cc(N)c2SCCNC(N(C)C)=[N+](C)C)c1)=[N+](C)C [Compound 22] | 1.292% |  |
| CC(=O)Nc1cc(C(C)(C)C)cc(NC(=O)c2cccc(C(=O)Nc3cc(C(C)(C)C)cc(NC(C)=O)c3SCCN)c2)c1SCCN [Compound 23] | 1.224% |  |
| CC(=O)Nc1cc(C(C)(C)C)cc(NC(=O)c2cc(OCCN)cc(C(=O)Nc3cc(C(C)(C)C)cc(NC(C)=O)c3SCCN)c2)c1SCCN [Compound 24] | 1.835% |  |
| N=C(N)NCCCCC(=O)Nc1cccc(NC(=O)c2cc(C(=O)Nc3cccc(NC(=O)NCCCNC(=N)N)c3SCCN)c(OCCN)cc2OCCN)c1SCCN [Compound 28] | 44.3% |  |
| CC(C)(C)c1cc(N)c(SCCN)c(NC(=O)c2cc(C(=O)Nc3cc(C(C)(C)C)cc(N)c3SCCN)ncn2)c1 [Compound 33] | 32.02% | % inhibition ± SEM ([1]; Table 3, 1.0 ug + FGF2 (1 ug)): 17 ± 18%; Branch pts ± SEM ([1]; Table 3, 1.0 ug + FGF2 (1 ug)): 160 ± 18 |
| COc1ccc(NC(=O)C(CCCNC(=N)N)NC(=O)c2cc(NC(=O)C(CCCNC(=N)N)NC(=O)c3cc(NC(=O)C(CCCNC(=N)N)NC(=O)c4cc(NC(=O)C(N)CCCNC(=N)N)ccc4OC)ccc3OC)ccc2OC)cc1C(N)=O (stereo not drawn) [Compound 48] |  | HC50 (human red blood cells): 261 μg/ml and 144 μM; Mean % inhibition ± SEM ([1]; 1.0 ug + FGF2 (1 ug), n = 8): 16 ± 6%; Mean % inhibition ± SEM ([1]; 3.0 ug + FGF2 (1 ug), n = 8): 38 ± 8%; Mean % inhibition ± SEM ([1]; 10 ug + FGF2 (1 ug), n = 8): 55 ± 7% |
| COC(=O)c1cc(NC(=O)c2cc(NC(=O)c3cc(NC(=O)c4cc(N)ccc4OC)ccc3OCCN)ccc2OC)ccc1OCCN [Compound 52] | 45.48% |  |
| COC(=O)c1cc(NC(=O)c2cc(NC(=O)c3cc(NC(=O)c4cc(NC(=O)c5cc(NC(=O)c6cc(N)ccc6OC)ccc5OCCN)ccc4OC)ccc3OCCN)ccc2OC)ccc1OCCN [Compound 53] | 43.03% |  |
| COC(=O)c1cc(OCCN)ccc1NC(=O)c1cc(OCCC(C)C)ccc1NC(=O)c1cc(OCCN)ccc1C(O)O [Compound 54] | 19.99% |  |
| NCCc1cc(Br)cc(C#Cc2cccc(C#Cc3cc(Br)cc(CCN)c3)c2)c1 [Compound 55] | 46.5% |  |
| Magainin [reference compound] | 4.419% |  |
| fibroblast growth factor 2 [FgF2, reference compound] |  | Branch pts ± SEM ([1]; Table 2, FgF alone 1.0 ug/ml, n = 8): 155 ± 10; Branch pts ± SEM ([1]; Table 3, FgF2 alone 1.0 ug/ml): 177 ± 10 |
| heparin [reference compound] |  | Coagulation Time (heparin; Heparin 1 mg/L): 50.8 s; Heparin Efficacy (heparin; Heparin 1 mg/L): 1; Coagulation Time (heparin; Heparin 2 mg/L): 110.8 s; Heparin Efficacy (heparin; Heparin 2 mg/L): 1; Coagulation Time (heparin; Heparin 4 mg/L): 214.9 s; Heparin Efficacy (heparin; Heparin 4 mg/L): 1 |
